Measured values as given in patent US10724099B2, “Multiplex methods to assay mixed cell populations simultaneously” (The Broad Institute, Inc., priority 2012, dated 2020).

Tests used:
EPHA2 = molecular target: T1, EPHA2 (Homo sapiens, UniProt P29317); experiment: DiscoveRx KinomeScan binding
T1 construct: purchased DiscoveRx scanEDGE panel

FGFR3 = molecular target: T2, FGFR3 (Homo sapiens, UniProt P22607); experiment: DiscoveRx KinomeScan binding
T2 construct: purchased DiscoveRx scanEDGE panel

RIOK2 = molecular target: T3, RIOK2 (Homo sapiens, UniProt Q9BVS4); experiment: DiscoveRx KinomeScan binding
T3 construct: purchased DiscoveRx scanEDGE panel

p38---beta = molecular target: T4, p38---beta (Homo sapiens, UniProt Q15759); experiment: DiscoveRx KinomeScan binding; settings: Entrez MAPK11
T4 construct: purchased DiscoveRx scanEDGE panel (KinomeScan)

MLK1 = molecular target: T5, MLK1 (Homo sapiens, UniProt P80192); experiment: DiscoveRx KinomeScan binding; settings: Entrez MAP3K9
T5 construct: purchased DiscoveRx scanEDGE panel (KinomeScan)

KIT(V559D,T670I) = molecular target: T6, KIT(V559D,T670I) (Homo sapiens, UniProt P10721, T670I/V559D); experiment: DiscoveRx KinomeScan binding
T6 construct: purchased DiscoveRx scanEDGE panel (KinomeScan)

AXL = molecular target: T7, AXL (Homo sapiens, UniProt P30530); experiment: DiscoveRx KinomeScan binding
T7 construct: purchased DiscoveRx (KINOMEscan scanEDGE panel)

ALK = molecular target: T8, ALK (Homo sapiens, UniProt Q9UM73); experiment: DiscoveRx KinomeScan binding
T8 construct: purchased DiscoveRx (KINOMEscan scanEDGE panel)

MKNK1 = molecular target: T9, MKNK1 (Homo sapiens, UniProt Q9BUB5); experiment: DiscoveRx KinomeScan binding
T9 construct: purchased DiscoveRx scanEDGE panel (KinomeScan)

JNK3 = molecular target: T10, JNK3 (Homo sapiens, UniProt P53779); experiment: DiscoveRx KinomeScan binding; settings: Entrez MAPK10
T10 construct: purchased DiscoveRx scanEDGE panel (KinomeScan)

DYRK1B = molecular target: T11, DYRK1B (Homo sapiens, UniProt Q9Y463); experiment: DiscoveRx KinomeScan binding
T11 construct: purchased DiscoveRx scanEDGE panel

MAPKAPK2 = molecular target: T12, MAPKAPK2 (Homo sapiens, UniProt P49137); experiment: DiscoveRx KinomeScan binding
T12 construct: purchased DiscoveRx scanEDGE panel (KinomeScan)

[1] = molecular target: T13, TYK2(JH1domain---catalytic) (Homo sapiens, UniProt P29597); experiment: DiscoveRx KinomeScan binding
T13 construct: TYK2(JH1domain---catalytic); purchased DiscoveRx scanEDGE panel

[2] = molecular target: T14, ABL1(E255K)---phosphorylated (Homo sapiens, UniProt P00519, E255K); experiment: DiscoveRx KinomeScan binding; settings: Entrez ABL1
T14 construct: purchased DiscoveRx (KINOMEscan scanEDGE panel)

PIK3C2B = molecular target: T15, PIK3C2B (Homo sapiens, UniProt O00750); experiment: DiscoveRx KinomeScan binding
T15 construct: purchased DiscoveRx scanEDGE panel (KinomeScan)

PKAC---alpha = molecular target: T16, PKAC---alpha (Homo sapiens, UniProt P17612); experiment: DiscoveRx KinomeScan binding; settings: Entrez PRKACA
T16 construct: purchased DiscoveRx scanEDGE panel

ULK2 = molecular target: T17, ULK2 (Homo sapiens, UniProt Q8IYT8); experiment: DiscoveRx KinomeScan binding
T17 construct: purchased DiscoveRx scanEDGE panel

PIM3 = molecular target: T18, PIM3 (Homo sapiens, UniProt Q86V86); experiment: DiscoveRx KinomeScan binding
T18 construct: purchased DiscoveRx scanEDGE panel

EGFR = molecular target: T19, EGFR (Homo sapiens, UniProt P00533); experiment: DiscoveRx KinomeScan binding
T19 construct: purchased DiscoveRx scanEDGE panel

ZAP70 = molecular target: T20, ZAP70 (Homo sapiens, UniProt P43403); experiment: DiscoveRx KinomeScan binding
T20 construct: purchased DiscoveRx (KinomeScan scanEDGE panel service)

BRAF = molecular target: T21, BRAF (Homo sapiens, UniProt P15056); experiment: DiscoveRx KinomeScan binding
T21 construct: purchased DiscoveRx (KINOMEscan scanEDGE panel)

PLK4 = molecular target: T22, PLK4 (Homo sapiens, UniProt O00444); experiment: DiscoveRx KinomeScan binding
T22 construct: purchased DiscoveRx scanEDGE panel

FAK = molecular target: T23, FAK (Homo sapiens, UniProt Q05397); experiment: DiscoveRx KinomeScan binding; settings: Entrez PTK2
T23 construct: purchased DiscoveRx scanEDGE panel

ADCK3 = molecular target: T24, ADCK3 (Homo sapiens, UniProt Q8NI60); experiment: DiscoveRx KinomeScan binding; settings: Entrez CABC1
T24 construct: purchased DiscoveRx (KINOMEscan scanEDGE panel)

TSSK1B = molecular target: T25, TSSK1B (Homo sapiens, UniProt Q9BXA7); experiment: DiscoveRx KinomeScan binding
T25 construct: purchased DiscoveRx scanEDGE panel

AURKB = molecular target: T26, AURKB (Homo sapiens, UniProt Q96GD4); experiment: DiscoveRx KinomeScan binding
T26 construct: purchased DiscoveRx (KINOMEscan scanEDGE panel)

JNK2 = molecular target: T27, JNK2 (Homo sapiens, UniProt P45984); experiment: DiscoveRx KinomeScan binding; settings: Entrez MAPK9
T27 construct: purchased DiscoveRx scanEDGE panel (KinomeScan)

PDGFRA = molecular target: T28, PDGFRA (Homo sapiens, UniProt P16234); experiment: DiscoveRx KinomeScan binding
T28 construct: purchased DiscoveRx scanEDGE panel (KinomeScan)

102 barcoded cell lines = experiment: PRISM, 102 barcoded cell lines in pools; format: cell-based; settings: 102 cell lines
Excerpt: PRISM was used to identify novel anticancer compounds, using a set of 102 barcoded cell lines including 90 non-small cell lung adenocarcinoma lines (and 2 duplicate lines with different barcode labels) and 10 remaining cell lines representing other tissues of origins.
Using the AUC for each cell line's response to BRD-7880, a PRISM “activity profile” was created to query whether the sensitivity pattern of BRD-7880 across the cell line panel was related to any of the tool compounds assayed in parallel. […] Thus it was hypothesized that BRD-7880 was functioning as an inhibitor of aurora kinases.

PDGFRB = molecular target: T29, PDGFRB (Homo sapiens, UniProt P09619); experiment: DiscoveRx KinomeScan binding
T29 construct: purchased DiscoveRx scanEDGE panel (KinomeScan)

ERBB4 = molecular target: T30, ERBB4 (Homo sapiens, UniProt Q15303); experiment: DiscoveRx KinomeScan binding
T30 construct: purchased DiscoveRx scanEDGE panel

TIE2 = molecular target: T31, TIE2 (Homo sapiens, UniProt Q02763); experiment: DiscoveRx KinomeScan binding; settings: Entrez TEK
T31 construct: purchased DiscoveRx scanEDGE panel

[3] = molecular target: T32, JAK3(JH1domain---catalytic) (Homo sapiens, UniProt P52333); experiment: DiscoveRx KinomeScan binding
T32 construct: JAK3(JH1domain---catalytic); purchased DiscoveRx scanEDGE panel

T26 sequence (Q96GD4 whole entry): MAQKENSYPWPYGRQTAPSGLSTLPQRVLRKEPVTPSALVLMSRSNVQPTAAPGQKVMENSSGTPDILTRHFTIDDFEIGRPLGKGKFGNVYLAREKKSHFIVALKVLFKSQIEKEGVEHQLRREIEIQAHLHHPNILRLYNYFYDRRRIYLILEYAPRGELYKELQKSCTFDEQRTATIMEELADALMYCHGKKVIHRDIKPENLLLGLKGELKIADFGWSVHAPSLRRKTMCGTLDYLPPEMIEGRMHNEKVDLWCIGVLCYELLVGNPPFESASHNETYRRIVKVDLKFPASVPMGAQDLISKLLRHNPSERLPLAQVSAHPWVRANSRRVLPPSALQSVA
T4 sequence (Q15759 whole entry): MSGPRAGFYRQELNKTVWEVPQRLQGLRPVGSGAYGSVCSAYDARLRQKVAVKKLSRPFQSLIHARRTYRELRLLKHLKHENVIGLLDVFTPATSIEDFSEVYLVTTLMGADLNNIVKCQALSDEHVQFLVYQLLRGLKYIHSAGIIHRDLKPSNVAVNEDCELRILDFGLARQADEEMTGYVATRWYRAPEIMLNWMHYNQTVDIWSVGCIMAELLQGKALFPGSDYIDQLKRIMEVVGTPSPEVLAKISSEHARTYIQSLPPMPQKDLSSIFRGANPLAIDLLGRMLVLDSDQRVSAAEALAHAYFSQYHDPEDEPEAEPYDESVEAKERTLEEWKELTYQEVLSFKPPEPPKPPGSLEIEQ
T11 sequence (Q9Y463 whole entry): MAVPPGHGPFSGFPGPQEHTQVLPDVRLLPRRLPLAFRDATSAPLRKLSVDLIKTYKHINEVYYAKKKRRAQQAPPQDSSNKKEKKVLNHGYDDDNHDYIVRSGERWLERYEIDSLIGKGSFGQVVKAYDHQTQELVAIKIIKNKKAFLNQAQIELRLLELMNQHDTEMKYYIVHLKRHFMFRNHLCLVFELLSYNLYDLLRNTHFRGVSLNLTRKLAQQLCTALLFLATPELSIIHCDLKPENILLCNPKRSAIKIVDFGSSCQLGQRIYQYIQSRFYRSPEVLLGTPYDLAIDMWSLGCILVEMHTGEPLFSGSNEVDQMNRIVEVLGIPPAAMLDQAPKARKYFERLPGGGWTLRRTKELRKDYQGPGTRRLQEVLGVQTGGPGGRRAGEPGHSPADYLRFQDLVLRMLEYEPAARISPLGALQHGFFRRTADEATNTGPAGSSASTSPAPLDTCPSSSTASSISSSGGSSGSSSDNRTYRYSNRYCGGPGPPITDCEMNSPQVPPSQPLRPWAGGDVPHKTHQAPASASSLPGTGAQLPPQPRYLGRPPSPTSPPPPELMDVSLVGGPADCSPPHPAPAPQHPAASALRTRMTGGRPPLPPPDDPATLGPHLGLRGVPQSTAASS
T30 sequence (Q15303 26-1308): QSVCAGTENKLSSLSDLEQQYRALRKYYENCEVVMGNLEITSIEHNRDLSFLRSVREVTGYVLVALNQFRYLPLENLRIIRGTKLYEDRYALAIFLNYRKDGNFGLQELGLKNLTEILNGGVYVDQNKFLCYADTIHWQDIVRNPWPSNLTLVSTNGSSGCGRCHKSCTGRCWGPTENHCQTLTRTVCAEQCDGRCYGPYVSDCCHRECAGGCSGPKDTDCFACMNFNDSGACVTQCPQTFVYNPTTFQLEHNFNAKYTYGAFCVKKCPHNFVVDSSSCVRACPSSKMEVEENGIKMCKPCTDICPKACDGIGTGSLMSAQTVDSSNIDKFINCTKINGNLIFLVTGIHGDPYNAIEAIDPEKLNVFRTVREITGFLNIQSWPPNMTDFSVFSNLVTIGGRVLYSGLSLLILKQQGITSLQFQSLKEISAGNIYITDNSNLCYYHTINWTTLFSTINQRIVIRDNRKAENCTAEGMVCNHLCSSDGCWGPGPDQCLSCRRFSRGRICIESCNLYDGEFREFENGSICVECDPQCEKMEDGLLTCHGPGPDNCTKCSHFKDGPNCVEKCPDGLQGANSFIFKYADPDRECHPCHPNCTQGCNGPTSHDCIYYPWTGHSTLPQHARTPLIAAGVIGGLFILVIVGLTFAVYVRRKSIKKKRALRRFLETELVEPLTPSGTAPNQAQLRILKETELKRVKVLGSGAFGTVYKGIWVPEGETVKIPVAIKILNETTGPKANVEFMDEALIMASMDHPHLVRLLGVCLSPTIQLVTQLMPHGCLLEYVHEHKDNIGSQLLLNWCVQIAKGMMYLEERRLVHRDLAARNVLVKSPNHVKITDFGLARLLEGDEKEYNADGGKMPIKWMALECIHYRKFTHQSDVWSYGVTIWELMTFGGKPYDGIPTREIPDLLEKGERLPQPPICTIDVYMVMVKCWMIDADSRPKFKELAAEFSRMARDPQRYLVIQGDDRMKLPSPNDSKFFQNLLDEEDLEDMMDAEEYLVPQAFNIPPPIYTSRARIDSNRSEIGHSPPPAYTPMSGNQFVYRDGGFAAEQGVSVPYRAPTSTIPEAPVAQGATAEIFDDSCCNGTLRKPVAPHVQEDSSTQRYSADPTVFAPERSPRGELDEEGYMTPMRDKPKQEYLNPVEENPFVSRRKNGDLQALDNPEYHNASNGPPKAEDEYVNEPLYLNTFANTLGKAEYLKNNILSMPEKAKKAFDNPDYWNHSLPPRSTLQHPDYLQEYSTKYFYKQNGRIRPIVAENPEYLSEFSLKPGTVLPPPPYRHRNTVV
T9 sequence (Q9BUB5 whole entry): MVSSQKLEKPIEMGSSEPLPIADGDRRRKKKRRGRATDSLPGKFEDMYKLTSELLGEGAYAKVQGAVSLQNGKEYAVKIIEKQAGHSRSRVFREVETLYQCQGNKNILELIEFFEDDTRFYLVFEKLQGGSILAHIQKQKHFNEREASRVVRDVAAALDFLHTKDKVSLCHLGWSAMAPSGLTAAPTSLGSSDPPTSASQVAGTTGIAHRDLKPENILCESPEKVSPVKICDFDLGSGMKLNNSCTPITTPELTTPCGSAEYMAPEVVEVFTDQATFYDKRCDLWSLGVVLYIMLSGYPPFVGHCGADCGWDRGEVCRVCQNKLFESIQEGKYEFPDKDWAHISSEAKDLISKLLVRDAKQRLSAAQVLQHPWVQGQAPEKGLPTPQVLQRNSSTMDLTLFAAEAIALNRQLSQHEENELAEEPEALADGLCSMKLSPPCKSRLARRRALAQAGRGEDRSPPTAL
T2 sequence (P22607 23-806): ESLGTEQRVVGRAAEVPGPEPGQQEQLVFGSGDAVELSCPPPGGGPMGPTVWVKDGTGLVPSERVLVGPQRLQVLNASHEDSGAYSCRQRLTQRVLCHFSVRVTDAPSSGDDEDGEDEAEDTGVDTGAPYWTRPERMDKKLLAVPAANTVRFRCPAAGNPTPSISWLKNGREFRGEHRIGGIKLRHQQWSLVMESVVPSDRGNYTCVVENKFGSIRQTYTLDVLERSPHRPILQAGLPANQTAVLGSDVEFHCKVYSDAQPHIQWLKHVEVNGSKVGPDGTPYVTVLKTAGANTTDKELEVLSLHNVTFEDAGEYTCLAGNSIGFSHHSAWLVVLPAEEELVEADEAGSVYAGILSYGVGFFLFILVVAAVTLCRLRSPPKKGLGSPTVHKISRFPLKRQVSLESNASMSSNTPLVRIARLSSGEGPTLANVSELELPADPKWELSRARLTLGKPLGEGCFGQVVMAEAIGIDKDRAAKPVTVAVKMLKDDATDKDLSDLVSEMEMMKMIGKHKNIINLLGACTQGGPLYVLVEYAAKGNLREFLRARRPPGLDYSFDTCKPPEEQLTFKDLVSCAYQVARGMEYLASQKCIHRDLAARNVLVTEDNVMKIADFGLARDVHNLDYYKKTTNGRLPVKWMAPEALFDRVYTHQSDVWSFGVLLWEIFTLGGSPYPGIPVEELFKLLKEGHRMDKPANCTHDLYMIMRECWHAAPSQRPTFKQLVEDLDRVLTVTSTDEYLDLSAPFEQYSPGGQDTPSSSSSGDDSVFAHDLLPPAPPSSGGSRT
T6 sequence (P10721 26-976 V559D/T670I): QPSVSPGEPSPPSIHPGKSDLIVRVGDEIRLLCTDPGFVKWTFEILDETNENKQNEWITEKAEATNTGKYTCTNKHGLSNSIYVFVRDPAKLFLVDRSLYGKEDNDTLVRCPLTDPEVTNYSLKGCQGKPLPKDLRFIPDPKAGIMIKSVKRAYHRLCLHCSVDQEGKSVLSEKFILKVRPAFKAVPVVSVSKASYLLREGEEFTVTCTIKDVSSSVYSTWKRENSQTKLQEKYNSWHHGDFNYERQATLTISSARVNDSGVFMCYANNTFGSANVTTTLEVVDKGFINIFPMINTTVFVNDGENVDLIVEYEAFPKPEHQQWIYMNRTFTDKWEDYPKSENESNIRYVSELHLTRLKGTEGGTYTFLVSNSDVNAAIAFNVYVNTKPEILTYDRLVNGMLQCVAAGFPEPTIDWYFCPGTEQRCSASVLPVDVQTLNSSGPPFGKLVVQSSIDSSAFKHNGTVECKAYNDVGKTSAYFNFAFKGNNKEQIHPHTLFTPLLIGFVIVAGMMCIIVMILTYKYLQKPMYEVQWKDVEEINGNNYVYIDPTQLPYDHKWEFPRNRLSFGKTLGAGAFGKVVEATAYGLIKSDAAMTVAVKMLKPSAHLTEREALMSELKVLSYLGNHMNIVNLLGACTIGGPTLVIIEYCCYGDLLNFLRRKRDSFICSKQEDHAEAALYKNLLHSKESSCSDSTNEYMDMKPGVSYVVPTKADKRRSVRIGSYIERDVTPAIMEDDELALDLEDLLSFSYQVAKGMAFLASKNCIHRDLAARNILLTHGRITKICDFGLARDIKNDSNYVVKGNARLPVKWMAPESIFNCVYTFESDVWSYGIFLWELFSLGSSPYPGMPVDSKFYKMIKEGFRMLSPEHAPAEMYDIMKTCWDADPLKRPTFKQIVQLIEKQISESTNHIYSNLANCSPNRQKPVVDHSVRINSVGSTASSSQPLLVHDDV

Structure (SMILES): COc1ccc(NC(=O)Nc2ccc3c(c2)C(=O)N([C@@H](C)CO)C[C@H](C)[C@H](CN(C)Cc2ccc4c(c2)OCO4)O3)cc1 [BRD-7880]
- Percent Control (EPHA2): 86%
- Percent Control (FGFR3): 56%
- Percent Control (RIOK2): 38%
- Percent Control (p38---beta): 87%
- Percent Control (MLK1): 91%
- Percent Control (KIT(V559D,T670I)): 100%
- Percent Control (AXL): 84%
- Percent Control (ALK): 100%
- Percent Control (MKNK1): 87%
- Percent Control (JNK3): 70%
- Percent Control (DYRK1B): 55%
- Percent Control (MAPKAPK2): 80%
- Percent Control [1]: 87%
- Percent Control [2]: 80%
- Percent Control (PIK3C2B): 96%
- Percent Control (PKAC---alpha): 69%
- Percent Control (ULK2): 100%
- Percent Control (PIM3): 72%
- Percent Control (EGFR): 66%
- Percent Control (ZAP70): 93%
- Percent Control (BRAF): 70%
- Percent Control (PLK4): 61%
- Percent Control (FAK): 100%
- Percent Control (ADCK3): 84%
- Percent Control (TSSK1B): 57%
- binding to aurora kinase B (AURKB): 0.5 % of control
- Percent Control (AURKB; AURKB): 0.5%
- Percent Control (JNK2): 89%
- Percent Control (PDGFRA): 90%
- cell lines with AUC<0.5 (selectivity) (102 barcoded cell lines; 8 doses 0.25-32 μM): 12 of 102
- EC50 (102 barcoded cell lines): ~1 µM
- Percent Control (PDGFRB): 100%
- Percent Control (ERBB4): 97%
- Percent Control (TIE2): 97%
- Percent Control [3]: 66%
